Data as given in patent publication US12685726B2, “Sulfoximines as inhibitors of NaV1.8” (Gruenenthal GmbH, priority 2022, dated 2026).
pIC50: −log10 of the molar value.

Target: T1, human NaV 1.8 (Homo sapiens, UniProt Q9Y5Y9)
T1 construct: expressed in transfected cells; host or cells: HEK (recombinant cell line)
Experiment: Automated whole-cell patch clamp (Qube384) voltage-clamp recordings of sodium currents in HEK-NaV1.8 cell line
Type: cell-based
Details: read-out: Potency category (human NaV 1.8 IC50)
Outline: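 HEK cells expressing NaV1.8 with b3, whole-cell automated voltage clamp at room temperature or 19° C.; CsF-based internal, pH 7.4 external. State-dependent (−120 mV, V1/2 4 s, −10 mV test pulses) and 10/20 Hz 40-pulse protocols; ~12 min compound, vehicle-corrected, IC50 by 4-parameter logistic fit.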

T1 sequence (Q9Y5Y9 whole entry): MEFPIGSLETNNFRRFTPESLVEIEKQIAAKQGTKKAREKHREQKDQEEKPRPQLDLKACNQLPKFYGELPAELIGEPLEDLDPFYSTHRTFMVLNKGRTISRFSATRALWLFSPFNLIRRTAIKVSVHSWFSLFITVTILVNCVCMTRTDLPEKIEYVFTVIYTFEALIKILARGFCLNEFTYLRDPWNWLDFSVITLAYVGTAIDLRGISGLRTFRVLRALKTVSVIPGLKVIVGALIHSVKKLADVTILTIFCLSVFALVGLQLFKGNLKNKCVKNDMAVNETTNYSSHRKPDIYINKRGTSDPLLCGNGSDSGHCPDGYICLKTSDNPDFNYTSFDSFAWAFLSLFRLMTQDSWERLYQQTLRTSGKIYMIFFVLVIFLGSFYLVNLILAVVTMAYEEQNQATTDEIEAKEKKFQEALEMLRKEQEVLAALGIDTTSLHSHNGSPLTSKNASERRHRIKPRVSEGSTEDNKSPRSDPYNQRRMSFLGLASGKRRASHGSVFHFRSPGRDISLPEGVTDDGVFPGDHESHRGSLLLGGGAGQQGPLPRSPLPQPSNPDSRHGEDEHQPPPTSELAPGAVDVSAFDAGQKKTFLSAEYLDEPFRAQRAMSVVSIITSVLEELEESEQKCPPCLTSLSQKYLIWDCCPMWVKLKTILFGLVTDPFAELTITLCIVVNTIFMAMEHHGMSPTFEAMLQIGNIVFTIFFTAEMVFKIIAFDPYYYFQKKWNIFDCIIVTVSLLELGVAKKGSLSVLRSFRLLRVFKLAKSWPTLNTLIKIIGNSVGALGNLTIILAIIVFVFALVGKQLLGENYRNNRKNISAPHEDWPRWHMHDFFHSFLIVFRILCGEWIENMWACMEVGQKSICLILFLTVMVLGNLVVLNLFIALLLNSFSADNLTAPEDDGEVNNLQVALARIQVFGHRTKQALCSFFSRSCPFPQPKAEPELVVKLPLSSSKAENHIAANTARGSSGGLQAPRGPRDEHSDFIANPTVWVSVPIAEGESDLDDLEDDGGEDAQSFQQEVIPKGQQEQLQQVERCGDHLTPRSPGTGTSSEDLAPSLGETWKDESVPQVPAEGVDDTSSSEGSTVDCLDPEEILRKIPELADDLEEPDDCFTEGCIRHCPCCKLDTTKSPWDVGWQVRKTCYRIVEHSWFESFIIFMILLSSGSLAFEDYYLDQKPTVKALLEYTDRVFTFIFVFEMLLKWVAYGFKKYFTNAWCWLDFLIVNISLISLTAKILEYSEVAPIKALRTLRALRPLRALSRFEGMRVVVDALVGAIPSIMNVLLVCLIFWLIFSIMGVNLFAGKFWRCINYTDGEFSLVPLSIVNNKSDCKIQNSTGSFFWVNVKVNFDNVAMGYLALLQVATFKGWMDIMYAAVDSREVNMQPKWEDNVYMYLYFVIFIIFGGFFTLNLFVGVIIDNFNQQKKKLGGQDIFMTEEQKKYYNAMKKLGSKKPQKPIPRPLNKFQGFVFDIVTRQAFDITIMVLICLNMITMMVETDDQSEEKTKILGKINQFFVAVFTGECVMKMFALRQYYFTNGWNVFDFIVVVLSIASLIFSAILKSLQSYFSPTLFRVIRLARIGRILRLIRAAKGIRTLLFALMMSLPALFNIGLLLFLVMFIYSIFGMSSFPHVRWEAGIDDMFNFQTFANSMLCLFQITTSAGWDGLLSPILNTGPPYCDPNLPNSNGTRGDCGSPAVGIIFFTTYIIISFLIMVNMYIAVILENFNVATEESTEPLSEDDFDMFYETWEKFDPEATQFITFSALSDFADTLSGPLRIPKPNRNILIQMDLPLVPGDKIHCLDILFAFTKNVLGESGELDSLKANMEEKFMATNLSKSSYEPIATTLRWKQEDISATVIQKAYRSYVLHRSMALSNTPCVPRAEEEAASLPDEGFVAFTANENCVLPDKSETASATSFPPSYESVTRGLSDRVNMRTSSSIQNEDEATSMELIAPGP

SMILES | pIC50
CC1(Cn2nc(C3CC3(F)F)c(C(F)(F)F)c2C(=O)Nc2ccnc(S(C)(=N)=O)c2)CC(F)(F)C1 (single isomer, unassigned) [Example 63b, 1-((3,3-Difluoro-1-methylcyclobutyl)methyl)-3-(2,2-difluorocyclopropyl)-N-(2-(S-methylsulfonimidoyl)pyridin-4-yl)-4-(trifluoromethyl)-1H-pyrazole-5-carboxamide] | ≥ 7.00
CS(=N)(=O)c1cc(NC(=O)c2c(C(F)(F)F)c(C3CC3)nn2CC2CCC23CNC3)ccn1 (single isomer, unassigned) [Example 153d, 1-((2-Azaspiro[3.3]heptan-5-yl)methyl)-3-cyclopropyl-N-(2-(S-methylsulfonimidoyl)pyridin-4-yl)-4-(trifluoromethyl)-1H-pyrazole-5-carboxamide] | 5.00 to 6.00
CC1(Cn2nc(C3(F)CC3)c(C(F)(F)F)c2C(=O)Nc2cccc([S@](C)(=O)=NC(=O)CO)c2)CC(F)(F)C1 [Example 151b] | ≥ 7.00
CC1(Cn2nc(C3(F)CC3)c(C(F)F)c2C(=O)Nc2cccc(S(C)(=N)=O)c2)CC(F)(F)C1 (single isomer, unassigned) [Example 135a, 1-((3,3-Difluoro-1-methylcyclobutyl)methyl)-4-(difluoromethyl)-3-(1-fluorocyclopropyl)-N-(3-(S-methylsulfonimidoyl)phenyl)-1H-pyrazole-5-carboxamide] | ≥ 7.00
C[S@](=N)(=O)c1cc(NC(=O)c2c(C(F)(F)F)c(C3CC3)nn2C[C@H]2C(F)(F)C23CC3)ccn1 (single isomer, unassigned) [Example 79b, 3-cyclopropyl-1-((2,2-difluorospiro[2.2]pentan-1-yl)methyl)-N-(2-(S-methylsulfonimidoyl)pyridin-4-yl)-4-(trifluoromethyl)-1H-pyrazole-5-carboxamide] | ≥ 7.00
Cc1cc(NC(=O)c2c(C(F)(F)F)c(C3CC3)nn2CC2(C)CC(F)(F)C2)cc(S(C)(=N)=O)n1 (single isomer, unassigned) [Example 50a, 3-cyclopropyl-1-((3,3-difluoro-1-methylcyclobutyl)methyl)-N-(2-methyl-6-(S-methylsulfonimidoyl)pyridin-4-yl)-4-(trifluoromethyl)-1H-pyrazole-5-carboxamide] | ≥ 7.00
C[S@](=N)(=O)c1cccc(NC(=O)c2c(C(F)(F)F)c(C3(F)CC3)nn2CC2C[C@H]2C(F)(F)F)c1 (single isomer, unassigned) [Example 134d, 3-(1-Fluorocyclopropyl)-N-(3-(S-methylsulfonimidoyl)phenyl)-4-(trifluoromethyl)-1-(((trans)-2-(trifluoromethyl)cyclopropyl)methyl)-1H-pyrazole-5-carboxamide] | ≥ 7.00

The remaining lines, values ahead:

pIC50 | SMILES
≥ 7.00 | CC1(Cn2nc(C3(F)CC3)c(C(F)(F)F)c2C(=O)Nc2ccnc(S(C)(=N)=O)c2)CC(F)(F)C1 (single isomer, unassigned) [Example 70b, 1-((3,3-Difluoro-1-methylcyclobutyl)methyl)-3-(1-fluorocyclopropyl)-N-(2-(S-methylsulfonimidoyl)pyridin-4-yl)-4-(trifluoromethyl)-1H-pyrazole-5-carboxamide]
≥ 7.00 | CC1(Cn2nc(C3CCC3)c(C(F)(F)F)c2C(=O)Nc2ccnc(S(C)(=N)=O)c2)CC(F)(F)C1 (single isomer, unassigned) [Example 56a, 3-cyclobutyl-1-((3,3-difluoro-1-methylcyclobutyl)methyl)-N-(2-(S-methylsulfonimidoyl)pyridin-4-yl)-4-(trifluoromethyl)-1H-pyrazole-5-carboxamide]
≥ 7.00 | CC1(Cn2nc(C3(C(F)F)CC3)c(C(F)(F)F)c2C(=O)Nc2ccnc(S(C)(=N)=O)c2)CC(F)(F)C1 (single isomer, unassigned) [Example 145a, 1-((3,3-Difluoro-1-methylcyclobutyl)methyl)-3-(1-(difluoromethyl)cyclopropyl)-N-(2-(S-methylsulfonimidoyl)pyridin-4-yl)-4-(trifluoromethyl)-1H-pyrazole-5-carboxamide]
